Tests used:
physchem = conditions: octan-1-ol/water
in vitro [1] = conditions: human
in vitro [2] = conditions: hepatocytes

Compound	logD (physchem; pH 7.4, LogD7.4)	microsomal CLint (in vitro [1]; liver microsomes) [µL/min/mg]	hepatocyte CLint (in vitro [2]) [µL/min/1e6 cells]	microsomal CLint (in vitro [1]; microsomes) [µL/min/mg]	logD (physchem; pH 7.4)
Nc1ncnc2c1ncn2[C@@H]1O[C@H](CSCCCNC(=O)Nc2ccccc2)[C@@H](O)[C@H]1O	1.9	–	28.2	9.77	–
O=c1[nH]c2c(O)ccc([C@@H](O)CNCCc3cccc(CN4CCC(c5ccccc5)CC4)c3)c2s1	1.99	–	29	27	–
O=C(C1CCN(c2nnc(-n3cccc3)s2)CC1)N1CCc2ccccc2C1	–	83.2	46.8	–	3.7
CC1Sc2c(C(=O)O)c(=O)c3cc(F)c(N4CCNCC4)cc3n21 (stereo not given) [ULIFLOXACIN]	–	13.8	< 3	–	–
N#CC1(NC(=O)[C@@H]2CCCC[C@H]2C(=O)N2CCN(c3nc4ccncc4s3)CC2)CC1	–	–	6.61	17.8	–
O=C(NCCCCCCNCCc1ccc(O)c2nc(O)sc12)Nc1ccccc1	–	11	98	–	–
O=c1c2c3n(c(=O)cc2[nH]n1-c1ccccc1Cl)CCCN(Cc1ccccc1)C3	–	–	< 3	32.4	–
Nc1nnc(CCSCCc2nnc(NC(=O)Cc3ccccc3)s2)s1	–	55	72.4	–	–
CCc1cccc2c1N(C)Cc1cc3c(cc1-2)OCO3	–	44.7	> 150	–	–
CS(=O)(=O)Nc1ccc(CCOCCCS(=O)(=O)CCNCCc2ccc(O)c3nc(O)sc23)cc1	–	28	105	–	–
O=C(NCc1ccccc1)c1cc(-c2ccco2)on1	–	70.8	138	–	–
C[C@@H](O)[C@H]1C(=O)N2C(C(=O)OCOC(=O)C(C)(C)C)=C(SC3CN(C4=NCCS4)C3)[C@H](C)[C@H]12 [TEBIPENEM PIVOXIL]	–	> 150	> 150	–	–
N#Cc1cnc(N2CCN(C(=O)[C@@H]3CCCC[C@H]3C(=O)NC3(C#N)CC3)CC2)s1	–	–	5.25	6.76	–
CC(=O)N1N=C(c2ccc(Br)cc2)CC1c1ccc(C)cc1 (stereo not given)	–	41.7	30.9	–	–
Nc1ccc(-c2ccccc2Cl)cc1	–	–	123	39.8	–
Oc1nc2c(O)ccc(CCNCCOCCCOCCc3ccccc3)c2s1	–	56	> 150	–	–
O=C(Nc1cc(-c2ccnc(Nc3ccc(F)cc3)c2)ccn1)C1CCOCC1	–	–	> 150	6.03	–
COC(=O)C1=C(C)NC2=C(C(=O)CC(C)(C)C2)C1c1ccc(-c2ccc(C(F)(F)F)cc2)cc1 (stereo not given)	–	9.12	12.3	–	–

Compound	logD (physchem; pH 7.4, LogD7.4)	microsomal CLint (in vitro [1]; liver microsomes) [µL/min/mg]	hepatocyte CLint (in vitro [2]) [µL/min/1e6 cells]	microsomal CLint (in vitro [1]; microsomes) [µL/min/mg]	logD (physchem; pH 7.4)
CCC(NC(=O)Nc1cc(Cl)ccc1Cl)(C(F)(F)F)C(F)(F)F	–	7.41	22.9	–	–
O=c1[nH]c2c(O)ccc([C@@H](O)CNCCCSCCNCCc3ccccc3Cl)c2s1	–	11	12	–	–
C[C@@H]1CN(c2ccc(F)cc2C(F)(F)F)CCN1S(=O)(=O)c1ccc(C(N)=O)cc1Cl	–	6.31	63.1	–	–
CC(C)CNc1nc(N2CCN(CC3CCCOC3)CC2)ncc1C(=O)NCc1ccccc1 (stereo not given)	–	95.5	89.1	–	–
Cc1ccc(-c2nnc(SCC(=O)N3CCN(c4ccccc4)CC3)o2)cc1	–	–	> 150	> 150	–
Cc1cc(NS(=O)(=O)c2ccc(Cl)cc2)no1	–	–	8.51	< 3	–
C[C@@H](O)[C@H]1C(=O)N2C(C(=O)O)=C(SC3CN(C4=NCCS4)C3)[C@H](C)[C@H]12 [TEBIPENEM]	–	23.4	4.79	–	–
COc1ccc(C#Cc2ccc([C@@H]3[C@H](CO)N4CCCCN(C(=O)Nc5cccc(F)c5)C[C@@H]34)cc2)cc1	–	–	18.2	50.1	–
COc1ccc(N(C(=O)c2ccco2)C(C(=O)NC2CCCC2)c2ccccc2F)c(OC)c1 (stereo not given)	–	> 150	> 150	–	–
O=C(O)Cc1ccccc1N1CCC(CN2CCC(Oc3ccc(Cl)c(Cl)c3)CC2)CC1	–	< 3	< 3	–	–
CCOC(=O)CN(c1ccccc1C)S(=O)(=O)c1ccc(Cl)cc1	–	94	> 150	–	–
CN(CCc1ccc(O)c2[nH]c(=O)sc12)CCN(C)C(=O)CCOCCc1ccccc1	–	> 150	> 150	–	–
CC(C)c1ccc(NC(=O)Cn2cnc3c2c(=O)n(C)c(=O)n3C)cc1	–	–	16.6	18.2	–
O=CN(O)CCCP(=O)(O)O [FOSMIDOMYCIN]	–	3.02	< 3	–	–
O=C(c1cccc(Cl)c1Cl)N1CCN(c2ccccn2)CC1	–	> 150	> 150	–	–
CN(CC(=O)N(Cc1ccc(C2CCCCC2)cc1)c1ccc(C(=O)O)c(O)c1)S(=O)(=O)c1c(F)c(F)c(F)c(F)c1F	–	–	74.1	129	–
Cc1c(Sc2ccc(Cl)cc2)c2cc(F)ccc2n1CC(=O)O	–	< 3	34	–	–
CS(=O)(=O)c1ccc(-c2cnc(N)c(C(=O)Nc3ccccc3)n2)cc1	–	–	19.1	4.17	–

Now from value to compound:

logD (physchem; pH 7.4, LogD7.4)	microsomal CLint (in vitro [1]; liver microsomes) [µL/min/mg]	hepatocyte CLint (in vitro [2]) [µL/min/1e6 cells]	microsomal CLint (in vitro [1]; microsomes) [µL/min/mg]	logD (physchem; pH 7.4)	Compound
3.78	66.1	66.1	–	–	CCc1c(C)nc(SCC(=O)Nc2nc(-c3ccc(OC)cc3)cs2)nc1O
1.52	45	33	–	–	COc1ccccc1CN(C)Cc1cccc(CCNC[C@H](O)c2ccc(O)c3[nH]c(=O)sc23)c1
3.2	27.5	12.6	–	–	COc1cc2c(Nc3ccc(F)c(Cl)c3)c(C(N)=O)cnc2cc1OCCN(C)CCO
2	120	> 150	–	–	CCN(CC)c1ccc2cc(C(C)=O)c(=O)oc2c1
0.4	< 3	12	–	–	Cc1nn(-c2ccc(F)cc2)c(NS(=O)(=O)c2cccnc2)c1C(=O)N[C@@H](C)C(C)(C)C
0.86	62	13	–	–	COc1ccc(CNCc2cccc(CCNC[C@H](O)c3ccc(O)c4[nH]c(=O)sc34)c2)cc1
–	–	12.9	25.1	–	Cc1cnc(Nc2ccc(F)cc2Cl)nc1-c1c[nH]c(C(=O)N[C@H](CO)c2cccc(Cl)c2)c1
–	–	75.9	7.76	–	CCn1c(SCC(=O)Nc2cc(C)on2)nnc1-c1cccnc1
–	10	20.9	–	–	CC(C)S(=O)(=O)c1ccc(-c2cnc(N)c(C(=O)Nc3ccccc3)n2)cc1
–	49	22.8	–	–	O=C(NCc1ccccc1)c1ccc2cccnc2c1O
–	> 150	46	–	–	CCOc1ccc2oc(C(=O)NC(CCSC)c3nc4ncccc4[nH]3)c(C)c2c1 (stereo not given)
–	> 150	50.1	–	–	Cc1ccc2c(NC[C@](O)(CC(C)(C)c3cc(F)cc4c3OCC4)C(F)(F)F)cccc2n1 [MAPRACORAT]
–	–	6.17	132	–	Cn1c(=O)c(-c2c(Cl)cccc2Cl)cc2cnc(Nc3ccc(F)cc3)nc21
–	> 150	> 150	–	–	COc1ccc(N(C(C)=O)C(C(=O)NC2CCCC2)c2ccccc2F)c(OC)c1 (stereo not given)
–	–	126	> 150	–	CCOC(=O)c1c(-c2ccccc2)nc2ccc(C)cn12
–	> 150	> 150	–	–	COc1ccc(-c2nc3ccccc3c(=O)[nH]2)cc1
–	32.4	> 150	–	–	CCn1c(SCC(=O)Nc2cc(C)on2)nnc1-c1ccccc1

From ChEMBL document CHEMBL3301361, “Experimental in vitro DMPK and physicochemical data on a set of publicly disclosed compounds”
